Results as given in ChEMBL document CHEMBL2429812, “Exploring multitarget interactions to reduce opiate withdrawal syndrome and psychiatric comorbidity” (ACS Med Chem Lett, 2013).
Calls of active or inactive are those of the source. The calls are words filed in the database; no cut-off is given here.

Key:
[1] = molecular target: T1, Alpha-2C adrenergic receptor (Homo sapiens) (UniProt P18825); assay: Agonist activity at human alpha2C AR assessed as intrinsic activity
T1 sequence (whole entry): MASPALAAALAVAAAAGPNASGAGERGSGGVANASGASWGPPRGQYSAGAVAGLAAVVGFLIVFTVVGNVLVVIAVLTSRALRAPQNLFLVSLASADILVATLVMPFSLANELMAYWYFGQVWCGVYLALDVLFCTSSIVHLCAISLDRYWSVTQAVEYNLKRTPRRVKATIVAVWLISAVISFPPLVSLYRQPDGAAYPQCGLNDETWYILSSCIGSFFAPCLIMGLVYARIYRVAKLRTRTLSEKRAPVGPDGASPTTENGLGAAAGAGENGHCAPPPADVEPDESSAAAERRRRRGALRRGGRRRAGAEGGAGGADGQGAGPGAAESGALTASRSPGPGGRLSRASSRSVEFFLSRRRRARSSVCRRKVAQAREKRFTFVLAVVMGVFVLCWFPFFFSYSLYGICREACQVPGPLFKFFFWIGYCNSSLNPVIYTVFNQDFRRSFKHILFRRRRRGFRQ

[2] = Binding affinity to I2 imidazoline binding site in rat brain membrane; format: cell membranes
[3] = molecular target: T2, Alpha-2B adrenergic receptor (Homo sapiens) (UniProt P18089); assay: Agonist activity at human alpha2B AR assessed as intrinsic activity
T2 sequence (whole entry): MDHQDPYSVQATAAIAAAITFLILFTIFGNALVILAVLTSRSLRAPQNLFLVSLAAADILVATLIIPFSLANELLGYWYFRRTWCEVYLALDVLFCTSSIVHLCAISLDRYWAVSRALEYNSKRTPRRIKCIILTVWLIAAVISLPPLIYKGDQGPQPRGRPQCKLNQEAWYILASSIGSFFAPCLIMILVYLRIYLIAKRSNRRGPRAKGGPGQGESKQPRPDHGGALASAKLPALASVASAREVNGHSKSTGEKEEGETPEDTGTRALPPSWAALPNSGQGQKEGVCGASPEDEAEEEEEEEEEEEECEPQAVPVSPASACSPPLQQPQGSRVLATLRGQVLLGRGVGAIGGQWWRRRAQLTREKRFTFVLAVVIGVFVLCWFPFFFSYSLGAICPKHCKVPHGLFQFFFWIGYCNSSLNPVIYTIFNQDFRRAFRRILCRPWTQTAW

[4] = molecular target: T3, 5-hydroxytryptamine receptor 1A (Homo sapiens, UniProt P08908); assay: Binding affinity at human 5HT1A receptor
T3 sequence (P08908 whole entry): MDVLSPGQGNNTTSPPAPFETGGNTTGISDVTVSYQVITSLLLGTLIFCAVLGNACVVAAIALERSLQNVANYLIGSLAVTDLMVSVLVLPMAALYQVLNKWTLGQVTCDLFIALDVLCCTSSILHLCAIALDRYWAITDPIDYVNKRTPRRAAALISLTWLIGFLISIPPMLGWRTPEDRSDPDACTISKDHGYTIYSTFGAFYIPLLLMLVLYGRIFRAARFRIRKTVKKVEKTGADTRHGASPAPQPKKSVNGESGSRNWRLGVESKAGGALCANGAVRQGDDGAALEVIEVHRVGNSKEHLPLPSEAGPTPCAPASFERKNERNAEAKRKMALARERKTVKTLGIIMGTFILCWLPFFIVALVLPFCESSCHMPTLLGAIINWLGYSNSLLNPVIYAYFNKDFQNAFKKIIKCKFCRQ

[5] = molecular target: T4, Alpha-2A adrenergic receptor (Homo sapiens) (UniProt P08913); assay: Antagonist activity at human alpha2A AR
T4 sequence (whole entry): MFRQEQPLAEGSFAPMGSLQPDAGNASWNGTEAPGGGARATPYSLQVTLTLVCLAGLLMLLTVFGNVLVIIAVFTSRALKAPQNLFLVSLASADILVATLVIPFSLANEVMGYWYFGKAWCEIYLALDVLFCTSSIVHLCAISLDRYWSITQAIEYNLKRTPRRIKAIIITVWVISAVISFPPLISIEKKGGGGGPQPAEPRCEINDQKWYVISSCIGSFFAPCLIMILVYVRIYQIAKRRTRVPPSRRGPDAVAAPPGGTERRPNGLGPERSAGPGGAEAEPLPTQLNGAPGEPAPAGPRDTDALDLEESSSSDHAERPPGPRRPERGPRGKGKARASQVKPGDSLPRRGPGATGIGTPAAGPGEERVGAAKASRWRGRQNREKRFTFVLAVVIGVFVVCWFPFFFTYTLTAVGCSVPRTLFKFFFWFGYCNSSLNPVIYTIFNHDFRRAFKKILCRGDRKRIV

[6] = molecular target: T5, 5-hydroxytryptamine receptor 1A (Homo sapiens) (UniProt P08908); assay: Agonist activity at human 5HT1A receptor
T5 sequence (whole entry): T3 sequence (P08908 whole entry)

[7] = molecular target: T2, Alpha-2B adrenergic receptor (Homo sapiens)
[8] = molecular target: T5, 5-hydroxytryptamine receptor 1A (Homo sapiens); assay: Agonist activity at human 5HT1A receptor assessed as intrinsic activity
Mus musculus [9] = assay: Antidepressant-like activity in mouse assessed as reduction in immobility time at 10 mg/kg, ip by forced swimming test; format: functional, organism-based; set-up: dose 10 mg/kg
[10] = molecular target: T6, Alpha-2C adrenergic receptor (Homo sapiens, UniProt P18825); assay: Binding affinity at human alpha2C AR
T6 sequence (P18825 whole entry): T1 sequence (whole entry)

[11] = molecular target: T7, Alpha-2B adrenergic receptor (Homo sapiens, UniProt P18089); assay: Binding affinity at human alpha2B AR
T7 sequence (P18089 whole entry): T2 sequence (whole entry)

[12] = molecular target: T8, Alpha-2A adrenergic receptor (Homo sapiens, UniProt P08913); assay: Binding affinity at human alpha2A AR
T8 sequence (P08913 whole entry): T4 sequence (whole entry)

[13] = molecular target: T6, Alpha-2C adrenergic receptor; assay: Agonist activity at human alpha2C AR
[14] = molecular target: T7, Alpha-2B adrenergic receptor; assay: Agonist activity at human alpha2B AR
Mus musculus [15] = assay: Antidepressant-like activity in mouse assessed as reduction in immobility time at 0.05 mg/kg, ip by forced swimming test; format: functional, organism-based; set-up: dose 0.05 mg/kg
[16] = molecular target: T5, 5-hydroxytryptamine receptor 1A (Homo sapiens); assay: Agonist activity at human 5HT1A receptor relative to control
Mus musculus [17] = assay: Reduction in morphine dependence expression in mouse assessed as decrease in expression of naloxone-precipitated withdrawal syndrome measuring jumping at 5 mg/kg, ip; format: functional; set-up: scale not given: the % may be the effect or the level left; details: route intraperitoneal
Mus musculus [18] = assay: Reduction in morphine dependence expression in mouse assessed as decrease in expression of naloxone-precipitated withdrawal syndrome measuring somatic signs at 5 mg/kg, ip; format: functional; set-up: scale not given: the % may be the effect or the level left; details: route intraperitoneal
Mus musculus [19] = assay: Antidepressant-like activity in mouse assessed as reduction in immobility time at 5 mg/kg, ip by forced swimming test in presence of idazoxan; format: functional, organism-based; set-up: dose 5 mg/kg
Mus musculus [20] = assay: Antidepressant-like activity in mouse assessed as reduction in immobility time at 5 mg/kg, ip by forced swimming test in presence of WAY 100635; format: functional, organism-based; set-up: dose 5 mg/kg
Mus musculus [21] = assay: Antidepressant-like activity in mouse assessed as reduction in immobility time at 1 to 20 mg/kg, ip by forced swimming test; format: functional, organism-based
Mus musculus [22] = assay: Antidepressant-like activity in mouse assessed as reduction in immobility time at 5 mg/kg, ip by forced swimming test; format: functional; set-up: scale not given: the % may be the effect or the level left; details: route intraperitoneal
Mus musculus [23] = assay: Reduction in morphine dependence expression in ip dosed mouse assessed as dosed required for decrease in expression of naloxone-precipitated withdrawal syndrome; format: functional
Mus musculus [24] = assay: Antidepressant-like activity in ip dosed mouse assessed as dosed required for reduction in immobility time by forced swimming test; format: functional
Mus musculus [25] = assay: Antidepressant-like activity in mouse assessed as reduction in immobility time at 0.025 mg/kg, ip by forced swimming test; format: functional, organism-based; set-up: dose 0.025 mg/kg
Mus musculus [26] = assay: Antidepressant-like activity in mouse assessed as reduction in immobility time at 20 mg/kg, ip by forced swimming test; format: functional, organism-based; set-up: dose 20 mg/kg

| SMILES | Intrinsic activity [1] | pKi [2] | Intrinsic activity [3] | Ki [4] [nM] | pKb [5] | pD2 [6] | Ki [10] [nM] | Ki [11] [nM] | Ki [12] [nM] | other results |
| --- | --- | --- | --- | --- | --- | --- | --- | --- | --- | --- |
| CC(Oc1ccccc1Br)C1=NCCN1 (centres undefined) | 0.87 | < 6 | 0.4 | 148 | 7.04 | – | – | – | – | – |
| C=CCc1ccccc1O[C@H](C)C1=NCCN1 | 0.5 | – | – | – | 7.4 | < 5 | – | – | – | pEC50 [7]: inactive |
| C=CCc1ccccc1O[C@@H](C)C1=NCCN1 | 0.9 | – | 0.65 | – | 7.8 | 7.19 | – | – | – | – |
| CCCc1ccccc1OCC1=NCCN1 | – | 8.25 | – | 79.4 | 6.28 | – | 490 | 550 | 49 | Intrinsic activity [8]: 0.9; Activity (Mus musculus [9]): Active; EC50 [13]: 155 nM; EC50 [14]: 2510 nM |
| CC(Oc1ccccc1CC1CC1)C1=NCCN1 (centres undefined) [CYCLOMETHYLINE] | 0.8 | < 6 | 0.7 | – | – | – | – | – | – | Activity (Mus musculus [15]): Active |
| CCCc1ccccc1OC(C)C1=NCCN1 (centres undefined) | 0.75 | < 6 | 0.6 | 13.8 | 7.05 | 7.08 | 148 | 537 | 50.1 | Emax [16]: 118%; EC50 [13]: 25.1 nM; EC50 [14]: 5010 nM |
| C[C@@H](Oc1ccccc1CC1CC1)C1=NCCN1 | 0.75 | – | 0.65 | – | – | – | – | – | – | – |
| CC(Oc1ccccc1OC1CC1)C1=NCCN1 (centres undefined) | 0.7 | < 6 | 0.6 | 14.8 | 6.9 | – | – | – | – | – |
| c1ccc(OCC2=NCCN2)c(CC2CC2)c1 | – | 6.9 | – | 83.2 | 6.35 | – | 631 | 501 | 77.6 | Intrinsic activity [8]: 0.8; EC50 [13]: 234 nM; EC50 [14]: 1700 nM |
| C=CCc1ccccc1OCC1=NCCN1 | – | 8.88 | – | 70.8 | 6.5 | – | 70.8 | 708 | 126 | Intrinsic activity [8]: 0.73; Activity (Mus musculus [17]): >50%; Activity (Mus musculus [18]): >50%; Activity (Mus musculus [19]): inactive; Activity (Mus musculus [20]): Active; Activity (Mus musculus [21]): Active; Activity (Mus musculus [22]): 50%; Activity (Mus musculus [15]): inactive; EC50 [13]: 61.7 nM; EC50 [14]: 977 nM |
| c1ccc(C2CC2)c(OCC2=NCCN2)c1 [CIRAZOLINE] | – | 8.35 | – | 34.7 | 6.4 | – | – | – | – | Intrinsic activity [8]: 0.8 |
| Brc1ccccc1OCC1=NCCN1 | – | 7.9 | – | 562 | 6.72 | – | 398 | 617 | 95.5 | Intrinsic activity [8]: 0.88; EC50 [13]: 97.7 nM; EC50 [14]: 1260 nM |
| c1ccc2oc(C3=NCCN3)cc2c1 | – | 8.89 | – | – | – | – | 26900 | 26900 | 26900 | Activity (Mus musculus [23]): 19 mg/kg; Activity (Mus musculus [24]): 10 mg/kg |
| C[C@H](Oc1ccccc1C1CC1)C1=NCCN1 | 0.9 | – | 0.65 | 6.03 | 7.7 | 7.86 | – | – | – | Activity (Mus musculus [25]): Active; Emax [16]: 102% |
| CNCCC(Oc1ccc(C(F)(F)F)cc1)c1ccccc1 (centres undefined) | – | – | – | – | – | – | – | – | – | Activity (Mus musculus [26]): Active |
| CC(Oc1ccccc1C1CC1)C1=NCCN1 (centres undefined) | 0.9 | < 6 | 0.7 | 7.24 | 7 | 7.24 | – | – | – | Activity (Mus musculus [15]): Active; Emax [16]: 92% |
| C[C@H](Oc1ccccc1CC1CC1)C1=NCCN1 | 0.85 | – | 0.7 | – | – | – | – | – | – | – |
| c1ccc2oc(-c3ncc[nH]3)cc2c1 | – | – | – | – | – | – | – | – | – | Activity (Mus musculus [23]): 20 mg/kg |
| C=CCc1ccccc1OC(C)C1=NCCN1 (centres undefined) [ALLYPHENYLINE] | 0.9 | < 6 | – | – | 7.4 | 6.86 | – | – | – | Activity (Mus musculus [15]): Active; pEC50 [7]: inactive |
| c1ccc(OC2CC2)c(OCC2=NCCN2)c1 | – | < 6 | – | 79.4 | 6.22 | – | 794 | 794 | 316 | Intrinsic activity [8]: 1; EC50 [13]: 1000 nM; EC50 [14]: 3160 nM |
| C[C@@H](Oc1ccccc1C1CC1)C1=NCCN1 | 0.5 | – | – | – | 6.9 | < 5 | – | – | – | Activity (Mus musculus [25]): inactive; pEC50 [7]: inactive |
